Experimental data from patent publication US6794149B1, “GABA B receptors” (Bayer Aktiengesellschaft, priority 1999, dated 2004).

How the values were obtained:
D-GABA B receptors R1/R2 = experiment: cAMP measurement in HEK293 cells stably coexpressing D-GABA B R1/R2; type: cell-based, Drosophila melanogaster; settings: D-GABA B R1/2-transfected HEK293 cells; GABA (100 μM) with forskolin (10 μM), 30 minutes, 37° C.; FIG. 2
Method: HEK293 cells were cultured at 5% CO2 and 37° C. in Dulbecco's modified Eagle's medium and 10% foetal calf serum. MBS (Stratagene, La Jolla, USA) was used for the gene transfer, following the manufacturer's instructions. 24 h to 48 h after the gene transfer, the cells were sown intro microtiter plates at various densities. Recombinant cells were selected over 3 to 4 weeks by growth in Dulbecco's modified Eagles medium and 10% foetal calf serum and 700 μg/ml Geneticin (G418, Life Technologies, Karlsruhe) as selection marker. Individual resistant clones were analysed as described below.
HEK293 cell strains were used for determining the cAMP concentration. On the one hand, HEK293 cells stably coexpressed the two Drosophila melanogaster receptors D-GABA B R1 and D-GABA B R2 (D-GABA R1/2). On the other hand, untransfected control cells were incorporated into the assay (control). In each case, the cells were plated into 96-well-plates at a density of 20,000 cells per cavity. […] The cells were lysed for 20 minutes at room temperature with shaking, and the cAMP concentration of the cell lysates were determined in triplicate using the enzyme immunoassay (EIA) kit AK-200 (Biomol, Hamburg, Germany) following the manufacturer's description.

[1] = system: untransfected control cells (HEK293); experiment: cAMP measurement in untransfected HEK293 control cells; type: cell-based; settings: GABA (100 μM) with forskolin (10 μM), 30 minutes, 37° C., FIG. 2
Method: HEK293 cell strains were used for determining the cAMP concentration. On the one hand, HEK293 cells stably coexpressed the two Drosophila melanogaster receptors D-GABA B R1 and D-GABA B R2 (D-GABA R1/2). On the other hand, untransfected control cells were incorporated into the assay (control). In each case, the cells were plated into 96-well-plates at a density of 20,000 cells per cavity. Control cells were incubated in culture medium (DMEM, 10% FCS, penicillin and streptomycin, 50 U/ml and 50 μg/ml (Life Technologies)) and D-GABA-R1/2 expressing cells in selection medium (culture medium with 0.5 mg/ml Geneticin (G418, Life Technologies)) for 48 hours at 37° C. until a cell density of approximately 80% was reached. Thereupon, the medium was removed, and the cells were washed once with unsupplemented DMEM. After incubation for 30 minutes with IBMX (300 μM) at 37° C., cells were stimulated for 30 minutes with GABA (100 μM) and/or forskolin (10 μM) at 37° C. All incubation steps were carried out in unsupplemented DMEM (Life Technologies). […] The cells were lysed for 20 minutes at room temperature with shaking, and the cAMP concentration of the cell lysates were determined in triplicate using the enzyme immunoassay (EIA) kit AK-200 (Biomol, Hamburg, Germany) following the manufacturer's description.

NCCCC(=O)O [GABA, Gamma-amino-butyric acid]
forskolin-induced cAMP response (intracellular cAMP concentration) (D-GABA B receptors R1/R2): marked reduction
forskolin-induced cAMP response (intracellular cAMP concentration) [1]: unresponsive
